We go through twelve molecules from patent US6444683B2, “17-azolyl steroids useful as androgen synthesis inhibitors” (University of Maryland at Baltimore, priority 1997, dated 2002).

Read-outs that look alike come from different tables or passages of the source.

In one data set the target is T1, Human P45017α (Homo sapiens, UniProt P05093).
T1 construct: Human testicular microsomes were prepared from human testes; from tissue; host or cells: human testes (untreated prostatic cancer patients undergoing orchidectomy), microsomal fraction
T1 sequence (P05093 1-508): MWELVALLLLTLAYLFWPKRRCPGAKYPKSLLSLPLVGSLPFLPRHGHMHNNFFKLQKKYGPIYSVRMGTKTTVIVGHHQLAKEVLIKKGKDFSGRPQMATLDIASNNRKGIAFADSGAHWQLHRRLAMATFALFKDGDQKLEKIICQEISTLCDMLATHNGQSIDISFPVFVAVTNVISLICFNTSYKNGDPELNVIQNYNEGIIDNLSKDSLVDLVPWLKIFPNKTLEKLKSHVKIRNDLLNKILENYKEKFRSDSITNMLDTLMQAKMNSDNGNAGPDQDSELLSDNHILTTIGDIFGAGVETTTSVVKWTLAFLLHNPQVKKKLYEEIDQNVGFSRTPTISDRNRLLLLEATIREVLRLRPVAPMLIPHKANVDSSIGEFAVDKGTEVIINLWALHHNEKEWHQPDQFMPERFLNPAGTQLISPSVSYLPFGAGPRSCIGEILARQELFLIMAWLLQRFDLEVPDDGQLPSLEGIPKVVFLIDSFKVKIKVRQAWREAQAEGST
Briefly: Inhibition of human testicular microsomal P45017α (lyase activity, release of C3H3COOH from [21-3H3]-17α-hydroxypregnenolone). Type of data set: biochemical. The protocol:
(§1) The microsomes were stored at −70° C. until assayed. Just before use, the thawed microsomes were diluted with 0.1 M phosphate buffer (pH 7.4) to appropriate concentrations.
(§2) This assay measures only the lyase activity of the P45017α enzyme.
(§3) IC50 values for inhibitors were calculated from the linear regression line in the plot of logit of lyase activity versus log of inhibitor concentration. […] Each inhibitor was examined at three concentrations.

Another data set deals with T2, Rat P45017α (Rattus norvegicus, UniProt P11715).
T2 sequence (P11715 1-507): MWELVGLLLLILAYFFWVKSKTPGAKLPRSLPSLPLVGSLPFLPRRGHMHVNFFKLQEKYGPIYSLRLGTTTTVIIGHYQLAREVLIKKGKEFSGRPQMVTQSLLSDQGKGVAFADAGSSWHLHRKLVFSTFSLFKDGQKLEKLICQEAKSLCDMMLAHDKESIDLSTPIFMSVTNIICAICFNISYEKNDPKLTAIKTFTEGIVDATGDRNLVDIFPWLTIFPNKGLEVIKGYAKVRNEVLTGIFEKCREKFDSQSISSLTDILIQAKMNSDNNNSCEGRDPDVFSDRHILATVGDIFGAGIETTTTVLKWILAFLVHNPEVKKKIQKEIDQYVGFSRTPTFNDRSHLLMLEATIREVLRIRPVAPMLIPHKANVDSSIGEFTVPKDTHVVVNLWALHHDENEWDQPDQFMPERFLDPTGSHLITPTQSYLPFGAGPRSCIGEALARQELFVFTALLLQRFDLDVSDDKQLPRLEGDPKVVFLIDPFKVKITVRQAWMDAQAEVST
Briefly: Inhibition of rat testicular microsomal P45017α (lyase activity). It is filed as biochemical. The protocol:
as §1, §2, §3

The mark [1] stands for this setting: inhibitor 150 nM, substrate 17α-hydroxypregnenolone 10 μM, mean of two determinations.

Regarding `CC(=O)O[C@H]1CC[C@@]2(C)C(=CC[C@@H]3[C@@H]2CC[C@]2(C)C(n4nccn4)=CC[C@@H]32)C1`, the melting point – broadly, the temperature, or range, at which the solid turns liquid – was in the range of 154 to 155 °C.
As for `CC(=O)O[C@H]1CC[C@@]2(C)C(=CC[C@@H]3[C@@H]2CC[C@]2(C)C(n4ccnn4)=CC[C@@H]32)C1`, the melting point was in the range of 158 to 160 °C.
The same measure, in the same setting: the same measure for `CC(=O)O[C@H]1CC[C@@]2(C)C(=CC[C@@H]3[C@@H]2CC[C@]2(C)C(n4ncnn4)=CC[C@@H]32)C1`: 155 to 156 °C.
On the same count and under the same terms, the figure for `CC(=O)O[C@H]1CC[C@@]2(C)C(=CC[C@@H]3[C@@H]2CC[C@]2(C)C(n4cccn4)=CC[C@@H]32)C1` is 159 to 161 °C.
Take `CC(=O)O[C@H]1CC[C@@]2(C)C(=CC[C@H]3[C@@H]4CC[C@@H](n5cccn5)[C@@]4(C)CC[C@@H]32)C1`: the melting point is 238 to 240 °C.
`C[C@]12CC[C@H]3[C@@H](CC=C4C[C@@H](O)CC[C@@]43C)[C@@H]1CC[C@@H]2n1cncn1` [Compound 8, 3β-hydroxy-17β-(1H-1,2,4-triazol-1-yl)androst-5-ene] showed a melting point of 246 to 248 °C. Further, the IC50 (in general, the concentration that inhibits the measured activity by half) at Human P45017α (human testicular microsomes, mean ± SDM of at least two experiments, read-out: Human P45017α IC50) worked out at 0.219 µM.
Molecule `C[C@]12CC[C@H]3[C@@H](CC=C4C[C@@H](O)CC[C@@]43C)[C@@H]1CC[C@@H]2n1ccnc1` [Compound 13, 3β-Hydroxy-17β-(1H-imidazol-1-yl)androst-5-ene] showed a melting point of 255 to 258 °C. The same molecule gave an IC50 at Human P45017α of 0.062 µM.
`C[C@]12CC[C@H](O)CC1=CC[C@@H]1[C@@H]2CC[C@]2(C)C(n3nccn3)=CC[C@@H]12` [Compound 18, 3β-hydroxy-17-(2H-1,2,3-triazol-2-yl)androsta-5,16-diene] had a melting point of 176 to 177 °C. In addition, the “Inhibition of human P45017α, in words” value on Human P45017α (human testicular microsomes) is given as “non-inhibitory”. The “% Inhibition of human P45017α” value on Human P45017α (setting [1]) was “N.I.^c”.
For `C[C@]12CC[C@H](O)CC1=CC[C@@H]1[C@@H]2CC[C@]2(C)C(n3ncnn3)=CC[C@@H]12` [Compound 25, 3β-hydroxy-17-(2H-tetrazol-2-yl)androsta-5,16-diene], in that order: 195 to 198 °C, “non-inhibitory” and “N.I.^c”.
For `C[C@]12CC[C@H](O)CC1=CC[C@@H]1[C@@H]2CC[C@]2(C)C(n3cnnn3)=CC[C@@H]12` [Compound 27, 3β-hydroxy-17-(1H-tetrazol-1-yl)androsta-5,16-diene], in that order: 200 to 204 °C (dec.), “non-inhibitory” and “N.I.^c”.
`C[C@]12CC[C@H](O)CC1=CC[C@@H]1[C@@H]2CC[C@]2(C)C(n3cccn3)=CC[C@@H]12` [Compound 30, 3β-hydroxy-17-(1H-pyrazol-1-yl)androsta-5,16-diene] came in with a melting point of 197 to 199 °C. For the same molecule, the “Inhibition of human P45017α, in words” value at Human P45017α (human testicular microsomes) is “moderate inhibitor”. Besides, at Human P45017α (inhibitor 150 nM, substrate 17α-hydroxypregnenolone 10 μM, mean of two determinations, read-out: % Inhibition of human P45017α), the inhibition (as a rule, the relative decrease from the control value, in per cent) at 0.15 µM was determined as 40%.
Regarding `CC(=O)N1CCN(c2ccc(OCC3COC(Cn4ccnc4)(c4ccc(Cl)cc4Cl)O3)cc2)CC1` (stereo not drawn) [Ketoconazole, reference compound], the “Inhibition of human P45017α, in words” value on Human P45017α (human testicular microsomes) was “strong inhibition”. At Rat P45017α (from IC50 values, rat vs human testicular microsomes), the “Decrease of potency towards the rat enzyme compared with human P45017α” value is reported as “about 3 fold”. The IC50 on Rat P45017α (rat testicular microsomes, mean ± SDM of at least two experiments, read-out: Rat P45017α IC50) came out at 0.209 ± 0.017 µM.
